# Reference: US4348410A, “Cyclohexane carboxylic acid derivatives” (Nippon Chemiphar Co., Ltd., priority 1979, dated 1982)
# Tests used:
# [1] = target: T1, trypsin (Bos taurus, UniProt P00760); assay: Inhibitory effects on trypsin (hydrolysis of p-tosylarginine methyl ester); assay type: biochemical; conditions: 37° C., 10 minutes; concentration not given
# T1 sequence (P00760 24-246): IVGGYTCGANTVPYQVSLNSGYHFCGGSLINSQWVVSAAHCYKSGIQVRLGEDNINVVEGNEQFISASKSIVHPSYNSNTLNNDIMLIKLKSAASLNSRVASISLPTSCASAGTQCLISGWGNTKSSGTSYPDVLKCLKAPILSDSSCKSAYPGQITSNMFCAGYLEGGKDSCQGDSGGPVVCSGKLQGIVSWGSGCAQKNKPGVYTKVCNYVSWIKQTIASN
# Experimental: In particular, inhibitory effects of the compounds on hydrolysis of p-tosylarginine methyl ester by trypsin were examined (incubated at 37° C. for 10 minutes).
# [2] = target: thrombin (Bos taurus, UniProt P00735); assay: Inhibitory effects on thrombin (hydrolysis of p-tosylarginine methyl ester); assay type: biochemical; conditions: 37° C., 10 minutes; concentration not given
# Experimental: The compounds of the formula (I) have excellent inhibitory effects on protease. The inhibitory effects were determined by the following methods:
# Inhibitory effects of the compounds on thrombin were determined according to the method described by M. Muramatsu et al (The Journal of Biochemistry, Volume 65 (1), 17 (1969)). In particular, inhibitory effects of the compounds on hydrolysis of p-tosylarginine methyl ester by thrombin were examined (incubated at 37° C. for 10 minutes).
# [3] = target: urokinase (Homo sapiens, UniProt P00749); assay: Inhibitory effects on urokinase (hydrolysis of N-acetylglycyl lysine methyl ester); assay type: biochemical; conditions: 37° C., 10 minutes; concentration not given
# Experimental: The compounds of the formula (I) have excellent inhibitory effects on protease. The inhibitory effects were determined by the following methods: Inhibitory effects of the compounds on urokinase were determined according to the method described by A. J. Joeson et al (Throm. […]. 21, 259-272 (1969)). In particular, inhibitory effects of the compounds on hydrolysis of N-acetylglycyl lysine methyl ester by urokinase were determined (incubated at 37° C. for 10 minutes).
# [4] = tested on: Shay ulcers; assay: Shay ulcers (pylorus ligation); assay type: in vivo, Male Sprague-Dawley strain rats; conditions: for Ulcer Grade 0 (number of rats): 0=no lesion; for Ulcer Grade 1 (number of rats): 1=hemorrhagic suffusion; for Ulcer Grade 2 (number of rats): 2=1-5 small ulcers (<3 mm); for Ulcer Grade 3 (number of rats): 3=many small ulcers (more than 5) or 1 ulcer of marked size; for Ulcer Grade 4 (number of rats): 4=many ulcers of marked size; for Ulcer Grade 5 (number of rats): 5=perforated ulcer
# Experimental: The rats were sacrificed 18 hours later by an overdose of ether and the stomach removed. The stomach was incised along the greater curvature and the surface area of each lesion in forestomach was measured by the naked eye. […] 4=many ulcers of marked size 5=perforated ulcer The test drugs were given intraperitoneally, immediately after pylorus ligation.
# [5] = tested on: acetic acid ulcers; assay: Acetic acid ulcers; assay type: in vivo, Male Sprague-Dawley strain rats; conditions: for Ulcer Grade 1 (number of rats): ulcer area 0-10 mm^2; for Ulcer Grade 2 (number of rats): ulcer area 11-20 mm^2; for Ulcer Grade 3 (number of rats): ulcer area 21-30 mm^2; for Ulcer Grade 4 (number of rats): ulcer area 31-40 mm^2; for Ulcer Grade 5 (number of rats): ulcer area >40 mm^2
# Experimental: Male Sprague-Dawley strain rats, weighing about 200 g were used. Under ether anesthesia 10% acetic acid solution (0.05 ml) was injected carefully between the serous membrane and the muscle near the pylorus, and the abdomen was closed. Thereafter, the animals were maintained under conditions and administered 1 ml/100 g of each test drug dissolved or suspended in 0.5% carboxymethylcellulose solution p.o. daily×10 starting from the next day of the operation. On the 11th day, the rats were sacrificed under ether anesthesia, and the stomachs were removed. The area of the ulcer was measured and graded into 5 degrees as an ulcer index according to the following method: […]
# [6] = tested on: gastric secretion; assay: Influence to the gastric secretion (pylorus ligation); assay type: in vivo, Male Sprague-Dawley strain rats
# Experimental: Male Sprague-Dawley strain rats, weighing 160-180 g were deprived of food but allowed free access to water for 20 hours prior to experiment. […] The test drug was given intraperitoneally immediately after pylorus ligation. The rats were sacrificed 3, 6 and 12 hours later and the stomachs removed. The gastric juice was collected and analyzed for volume. Then the gastric juice was centrifuged at 1300 g for 10 minutes at room temperature to give the supernatant. The total acidity and peptic activity of the supernatant were determined. Total acidity was determined by titrating with 0.01 N NaOH. […] Total acidity is shown as the titration volume (ml) and peptic activity is shown as the corresponding weight (mg) to crystal pepsin.
structure (smiles),measurement,setting,value
N=C(N)NC[C@H]1CC[C@H](C(=O)Oc2ccccc2C(=O)OCc2ccccc2)CC1 [Compound 1],Inhibition (%) Trypsin,[1],79%
same,Inhibition (%) Thrombin,[2],37%
same,Inhibition (%) Urokinase,[3],32%
same,Ulcer Grade 0 (number of rats),[4]; 75 mg/kg i.p.,8
same,Ulcer Grade 1 (number of rats),[4]; 75 mg/kg i.p.,0
same,Ulcer Grade 2 (number of rats),[4]; 75 mg/kg i.p.,2
same,Ulcer Grade 3 (number of rats),[4]; 75 mg/kg i.p.,0
same,Ulcer Grade 4 (number of rats),[4]; 75 mg/kg i.p.,0
same,Ulcer Grade 5 (number of rats),[4]; 75 mg/kg i.p.,0
same,Ulcer Grade 0 (number of rats),[4]; 150 mg/kg i.p.,10
same,Ulcer Grade 1 (number of rats),[4]; 150 mg/kg i.p.,0
same,Ulcer Grade 2 (number of rats),[4]; 150 mg/kg i.p.,0
same,Ulcer Grade 3 (number of rats),[4]; 150 mg/kg i.p.,0
same,Ulcer Grade 4 (number of rats),[4]; 150 mg/kg i.p.,0
same,Ulcer Grade 5 (number of rats),[4]; 150 mg/kg i.p.,0
same,Ulcer Grade 0 (number of rats),[4]; 300 mg/kg i.p.,7
same,Ulcer Grade 1 (number of rats),[4]; 300 mg/kg i.p.,0
same,Ulcer Grade 2 (number of rats),[4]; 300 mg/kg i.p.,0
same,Ulcer Grade 3 (number of rats),[4]; 300 mg/kg i.p.,0
same,Ulcer Grade 4 (number of rats),[4]; 300 mg/kg i.p.,0
same,Ulcer Grade 5 (number of rats),[4]; 300 mg/kg i.p.,0
same,Ulcer Grade 1 (number of rats),[5]; 125 mg/kg p.o. daily×10,15
same,Ulcer Grade 2 (number of rats),[5]; 125 mg/kg p.o. daily×10,1
same,Ulcer Grade 3 (number of rats),[5]; 125 mg/kg p.o. daily×10,2
same,Ulcer Grade 4 (number of rats),[5]; 125 mg/kg p.o. daily×10,0
same,Ulcer Grade 5 (number of rats),[5]; 125 mg/kg p.o. daily×10,0
same,Ulcer Grade 1 (number of rats),[5]; 250 mg/kg p.o. daily×10,14
same,Ulcer Grade 2 (number of rats),[5]; 250 mg/kg p.o. daily×10,1
same,Ulcer Grade 3 (number of rats),[5]; 250 mg/kg p.o. daily×10,1
same,Ulcer Grade 4 (number of rats),[5]; 250 mg/kg p.o. daily×10,0
same,Ulcer Grade 5 (number of rats),[5]; 250 mg/kg p.o. daily×10,0
same,Ulcer Grade 1 (number of rats),[5]; 500 mg/kg p.o. daily×10,16
same,Ulcer Grade 2 (number of rats),[5]; 500 mg/kg p.o. daily×10,2
same,Ulcer Grade 3 (number of rats),[5]; 500 mg/kg p.o. daily×10,0
same,Ulcer Grade 4 (number of rats),[5]; 500 mg/kg p.o. daily×10,0
same,Ulcer Grade 5 (number of rats),[5]; 500 mg/kg p.o. daily×10,0
same,Gastric Contents Volume,"[6]; 3 hours, 75 mg/kg i.p.",2.6 ± 0.4 mL
same,Gastric Contents Volume % change,"[6]; 3 hours, 75 mg/kg i.p.",10.3%
same,Titratable Acid Output,"[6]; 3 hours, 75 mg/kg i.p.",39.2 ± 11.6 μEg
same,Titratable Acid Output % change,"[6]; 3 hours, 75 mg/kg i.p.",52.5%
same,Titratable Pepsin Output,"[6]; 3 hours, 75 mg/kg i.p.",5.7 ± 1.5 mg
same,Titratable Pepsin Output % change,"[6]; 3 hours, 75 mg/kg i.p.",1.7%
same,Gastric Contents Volume,"[6]; 3 hours, 150 mg/kg i.p.",0.7 ± 0.3 mL
same,Gastric Contents Volume % change,"[6]; 3 hours, 150 mg/kg i.p.",75.9%
same,Titratable Acid Output,"[6]; 3 hours, 150 mg/kg i.p.",9.8 ± 3.3 μEg
same,Titratable Acid Output % change,"[6]; 3 hours, 150 mg/kg i.p.",88.1%
same,Titratable Pepsin Output,"[6]; 3 hours, 150 mg/kg i.p.",1.4 ± 0.7 mg
same,Titratable Pepsin Output % change,"[6]; 3 hours, 150 mg/kg i.p.",75.9%
same,Gastric Contents Volume,"[6]; 3 hours, 300 mg/kg i.p.",0.5 ± 0.2 mL
same,Gastric Contents Volume % change,"[6]; 3 hours, 300 mg/kg i.p.",82.8%
same,Titratable Acid Output,"[6]; 3 hours, 300 mg/kg i.p.",4.6 ± 3.3 μEg
same,Titratable Acid Output % change,"[6]; 3 hours, 300 mg/kg i.p.",94.4%
same,Titratable Pepsin Output,"[6]; 3 hours, 300 mg/kg i.p.",0.9 ± 0.6 mg
same,Titratable Pepsin Output % change,"[6]; 3 hours, 300 mg/kg i.p.",84.5%
same,Gastric Contents Volume,"[6]; 6 hours, 75 mg/kg i.p.",4.2 ± 0.6 mL
same,Gastric Contents Volume % change,"[6]; 6 hours, 75 mg/kg i.p.",31.1%
same,Titratable Acid Output,"[6]; 6 hours, 75 mg/kg i.p.",259.8 ± 61.8 μEq
same,Titratable Acid Output % change,"[6]; 6 hours, 75 mg/kg i.p.",32.0%
same,Titratable Pepsin Output,"[6]; 6 hours, 75 mg/kg i.p.",13.9 ± 3.0 mg
same,Titratable Pepsin Output % change,"[6]; 6 hours, 75 mg/kg i.p.",35.9%
same,Gastric Contents Volume,"[6]; 6 hours, 150 mg/kg i.p.",1.5 ± 0.3 mL
same,Gastric Contents Volume % change,"[6]; 6 hours, 150 mg/kg i.p.",75.4%
same,Titratable Acid Output,"[6]; 6 hours, 150 mg/kg i.p.",85.3 ± 49.4 μEq
same,Titratable Acid Output % change,"[6]; 6 hours, 150 mg/kg i.p.",77.7%
same,Titratable Pepsin Output,"[6]; 6 hours, 150 mg/kg i.p.",4.7 ± 1.1 mg
same,Titratable Pepsin Output % change,"[6]; 6 hours, 150 mg/kg i.p.",78.3%
same,Gastric Contents Volume,"[6]; 6 hours, 300 mg/kg i.p.",1.5 ± 0.3 mL
same,Gastric Contents Volume % change,"[6]; 6 hours, 300 mg/kg i.p.",75.4%
same,Titratable Acid Output,"[6]; 6 hours, 300 mg/kg i.p.",70.4 ± 30.4 μEq
same,Titratable Acid Output % change,"[6]; 6 hours, 300 mg/kg i.p.",81.6%
same,Titratable Pepsin Output,"[6]; 6 hours, 300 mg/kg i.p.",3.5 ± 1.4 mg
same,Titratable Pepsin Output % change,"[6]; 6 hours, 300 mg/kg i.p.",83.9%
same,Gastric Contents Volume,"[6]; 12 hours, 75 mg/kg i.p.",5.2 ± 2.1 mL
same,Gastric Contents Volume % change,"[6]; 12 hours, 75 mg/kg i.p.",61.5%
same,Titratable Acid Output,"[6]; 12 hours, 75 mg/kg i.p.",394.6 ± 136.5 μEq
same,Titratable Acid Output % change,"[6]; 12 hours, 75 mg/kg i.p.",51.9%
same,Titratable Pepsin Output,"[6]; 12 hours, 75 mg/kg i.p.",27.3 ± 8.6 mg
same,Titratable Pepsin Output % change,"[6]; 12 hours, 75 mg/kg i.p.",52.9%
same,Gastric Contents Volume,"[6]; 12 hours, 150 mg/kg i.p.",6.3 ± 0.9 mL
same,Gastric Contents Volume % change,"[6]; 12 hours, 150 mg/kg i.p.",53.3%
same,Titratable Acid Output,"[6]; 12 hours, 150 mg/kg i.p.",387.3 ± 79.3 μEq
same,Titratable Acid Output % change,"[6]; 12 hours, 150 mg/kg i.p.",52.8%
same,Titratable Pepsin Output,"[6]; 12 hours, 150 mg/kg i.p.",24.0 ± 4.2 mg
same,Titratable Pepsin Output % change,"[6]; 12 hours, 150 mg/kg i.p.",58.6%
same,Gastric Contents Volume,"[6]; 12 hours, 300 mg/kg i.p.",3.6 ± 0.6 mL
same,Gastric Contents Volume % change,"[6]; 12 hours, 300 mg/kg i.p.",73.3%
same,Titratable Acid Output,"[6]; 12 hours, 300 mg/kg i.p.",258.4 ± 66.9 μEq
same,Titratable Acid Output % change,"[6]; 12 hours, 300 mg/kg i.p.",68.5%
same,Titratable Pepsin Output,"[6]; 12 hours, 300 mg/kg i.p.",14.0 ± 2.4 mg
same,Titratable Pepsin Output % change,"[6]; 12 hours, 300 mg/kg i.p.",75.9%
